Experimental data from patent EP3301096A1, “BIS-INDOLE DERIVATIVES FOR USE IN THE TREATMENT OF BACTERIAL INFECTIONS” (Heinrich Heine Universität Düsseldorf, priority 2016, dated 2018).

system: M. tuberculosis H37Rv; experiment: MIC determination, resazurin microplate assay; type: cell-based; details: Mycobacterium tuberculosis, 120 h, five days, range 100-0.78 µM

Fc1ccc2[nH]cc(-c3cnc(-c4c[nH]c5ccc(F)cc45)cn3)c2c1 [formula (5), 2,5-bis(5-fluoro-1H-indole-3-yl)pyrazine] and Fc1ccc2[nH]cc(-c3cnc(-c4c[nH]c5ccc(F)cc45)nc3)c2c1 [formula (11), 3,3'-(pyrimidine-2,5-diyl)bis(5-fluoro-1H-indole)] cannot be ordered by MIC: over 100 µM for the first, over 100 µM for the second.

c1cc(-c2c[nH]c3ccccc23)nc(-c2c[nH]c3ccccc23)c1 [formula (16), 2,6-di(1H-indole-3-yl)pyridine] and c1ccc2c(-c3ccc(-c4c[nH]c5ccccc45)nn3)c[nH]c2c1 [formula (17), 3,6-Di(1H-indole-3-yl)pyridazine] cannot be ordered by MIC: over 100 µM for the first, over 100 µM for the second.

Brc1cc2[nH]cc(-c3cnc(-c4c[nH]c5cc(Br)c(Br)cc45)cn3)c2cc1Br [formula (7), 2,5-bis(5,6-dibromo-1H-indole-3-yl)pyrazine] and COc1ccc2[nH]cc(-c3cnc(-c4c[nH]c5ccc(OC)cc45)cn3)c2c1 [formula (8), 2,5-bis(5-methoxy-1H-indole-3-yl)pyrazine] cannot be ordered by MIC: over 100 µM for the first, over 100 µM for the second.

Going from c1ccc2c(-c3cnc(-c4c[nH]c5ccccc45)cn3)c[nH]c2c1 [formula (10), 2,5-bis(1H-indole-3-yl)pyrazine] to COc1ccc2[nH]cc(-c3cnc(-c4c[nH]c5ccc(OC)cc45)nc3)c2c1 [formula (14), 3,3'-(pyrimidine-2,5-diyl)bis(5-methoxy-1H-indole)], the MIC falls from over 100 µM to 50 µM.

system: E. faecium ATCC 35667; experiment: MIC by broth microdilution method (CLSI); details: Enterococcus faecium, ATCC35667, 24 h

Compared with Fc1ccc2[nH]cc(-c3cnc(-c4c[nH]c5ccc(F)cc45)cn3)c2c1 [formula (5), 2,5-bis(5-fluoro-1H-indole-3-yl)pyrazine], Fc1ccc2[nH]cc(-c3cnc(-c4c[nH]c5ccc(F)cc45)nc3)c2c1 [formula (11), 3,3'-(pyrimidine-2,5-diyl)bis(5-fluoro-1H-indole)] is lower in MIC: over 100 µM for the first, 50 µM for the second.

c1cc(-c2c[nH]c3ccccc23)nc(-c2c[nH]c3ccccc23)c1 [formula (16), 2,6-di(1H-indole-3-yl)pyridine] and c1ccc2c(-c3ccc(-c4c[nH]c5ccccc45)nn3)c[nH]c2c1 [formula (17), 3,6-Di(1H-indole-3-yl)pyridazine] cannot be ordered by MIC: over 100 µM for the first, over 100 µM for the second.

Going from Brc1cc2[nH]cc(-c3cnc(-c4c[nH]c5cc(Br)c(Br)cc45)cn3)c2cc1Br [formula (7), 2,5-bis(5,6-dibromo-1H-indole-3-yl)pyrazine] to COc1ccc2[nH]cc(-c3cnc(-c4c[nH]c5ccc(OC)cc45)cn3)c2c1 [formula (8), 2,5-bis(5-methoxy-1H-indole-3-yl)pyrazine], the MIC rises from 50 µM to over 100 µM.

First: c1ccc2c(-c3cnc(-c4c[nH]c5ccccc45)cn3)c[nH]c2c1 [formula (10), 2,5-bis(1H-indole-3-yl)pyrazine]
Second: COc1ccc2[nH]cc(-c3cnc(-c4c[nH]c5ccc(OC)cc45)nc3)c2c1 [formula (14), 3,3'-(pyrimidine-2,5-diyl)bis(5-methoxy-1H-indole)]
The MIC of the first is higher: over 100 µM for the first, 100 µM for the second.

system: VR E. faecium ATCC 700221; experiment: MIC by broth microdilution method (CLSI); details: Enterococcus faecium, ATCC700221, 24 h
Protocol: (§1) The compounds were tested for their antibacterial activities against the pathogenic nosocomial strains of Staphylococcus aureus, Enterococcus faecalis Enterococcus faecium, Acinetobacter baumannii. The minimal inhibitory concentration (MIC) was determined by the broth microdilution method according to the recommendations of the Clinical and Laboratory Standards Institute (CLSI) (CLSI M7-A9, 2012). For preparation of the inoculum the growth method was used. Bacterial cells were grown aerobically in Muller Hinton (MH) medium at 37°C and 180 rpm. A preculture was grown until log phase (OD600 nm ∼ 0.5) and then seeded at 5 x 10^4 bacteria/well in a total volume of 100 µL in 96 well round bottom microtiter plates and incubated with serially diluted test substances at a concentration range of 100-0.78 µM. The compounds were screened in two-fold serial dilution. Microplates were incubated aerobically at 37°C for 24 h. MICs were determined by identifying the minimum concentration of the compounds that led to complete inhibition of visual growth of the bacteria.

First: Fc1ccc2[nH]cc(-c3cnc(-c4c[nH]c5ccc(F)cc45)cn3)c2c1 [formula (5), 2,5-bis(5-fluoro-1H-indole-3-yl)pyrazine]
Second: Fc1ccc2[nH]cc(-c3cnc(-c4c[nH]c5ccc(F)cc45)nc3)c2c1 [formula (11), 3,3'-(pyrimidine-2,5-diyl)bis(5-fluoro-1H-indole)]
The MIC of the first is higher: over 100 µM for the first, 50 µM for the second.

c1cc(-c2c[nH]c3ccccc23)nc(-c2c[nH]c3ccccc23)c1 [formula (16), 2,6-di(1H-indole-3-yl)pyridine] and c1ccc2c(-c3ccc(-c4c[nH]c5ccccc45)nn3)c[nH]c2c1 [formula (17), 3,6-Di(1H-indole-3-yl)pyridazine] cannot be ordered by MIC: over 100 µM for the first, over 100 µM for the second.

First: Brc1cc2[nH]cc(-c3cnc(-c4c[nH]c5cc(Br)c(Br)cc45)cn3)c2cc1Br [formula (7), 2,5-bis(5,6-dibromo-1H-indole-3-yl)pyrazine]
Second: COc1ccc2[nH]cc(-c3cnc(-c4c[nH]c5ccc(OC)cc45)cn3)c2c1 [formula (8), 2,5-bis(5-methoxy-1H-indole-3-yl)pyrazine]
The MIC of the first is lower: 50 µM for the first, over 100 µM for the second.

Going from c1ccc2c(-c3cnc(-c4c[nH]c5ccccc45)cn3)c[nH]c2c1 [formula (10), 2,5-bis(1H-indole-3-yl)pyrazine] to COc1ccc2[nH]cc(-c3cnc(-c4c[nH]c5ccc(OC)cc45)nc3)c2c1 [formula (14), 3,3'-(pyrimidine-2,5-diyl)bis(5-methoxy-1H-indole)], the MIC falls from over 100 µM to 50 µM.

system: E. faecalis ATCC 29212; experiment: MIC by broth microdilution method (CLSI); details: Enterococcus faecalis, ATCC29212, 24 h
Protocol: as §1

Compared with Fc1ccc2[nH]cc(-c3cnc(-c4c[nH]c5ccc(F)cc45)cn3)c2c1 [formula (5), 2,5-bis(5-fluoro-1H-indole-3-yl)pyrazine], Fc1ccc2[nH]cc(-c3cnc(-c4c[nH]c5ccc(F)cc45)nc3)c2c1 [formula (11), 3,3'-(pyrimidine-2,5-diyl)bis(5-fluoro-1H-indole)] is lower in MIC: over 100 µM for the first, 100 µM for the second.

c1cc(-c2c[nH]c3ccccc23)nc(-c2c[nH]c3ccccc23)c1 [formula (16), 2,6-di(1H-indole-3-yl)pyridine] and c1ccc2c(-c3ccc(-c4c[nH]c5ccccc45)nn3)c[nH]c2c1 [formula (17), 3,6-Di(1H-indole-3-yl)pyridazine] are the same in MIC: 100 µM for the first, 100 µM for the second.

First: Brc1cc2[nH]cc(-c3cnc(-c4c[nH]c5cc(Br)c(Br)cc45)cn3)c2cc1Br [formula (7), 2,5-bis(5,6-dibromo-1H-indole-3-yl)pyrazine]
Second: COc1ccc2[nH]cc(-c3cnc(-c4c[nH]c5ccc(OC)cc45)cn3)c2c1 [formula (8), 2,5-bis(5-methoxy-1H-indole-3-yl)pyrazine]
The MIC of the first is lower: 100 µM for the first, over 100 µM for the second.

Compared with c1ccc2c(-c3cnc(-c4c[nH]c5ccccc45)cn3)c[nH]c2c1 [formula (10), 2,5-bis(1H-indole-3-yl)pyrazine], COc1ccc2[nH]cc(-c3cnc(-c4c[nH]c5ccc(OC)cc45)nc3)c2c1 [formula (14), 3,3'-(pyrimidine-2,5-diyl)bis(5-methoxy-1H-indole)] is 4-fold higher in MIC: 12.5 µM for the first, 50 µM for the second.

system: nosocomial pathogens and Mycobacterium tuberculosis; experiment: MIC determination, statements across the tested strains; type: cell-based; details: not given

In the case of c1ccc2c(-c3cnc(-c4c[nH]c5ccccc45)cn3)c[nH]c2c1 [formula (10), 2,5-bis(1H-indole-3-yl)pyrazine], the “effect against M. tuberculosis, S. aureus and E.faecium” value is reported as “did not show any effect”.
In the case of COc1ccc2[nH]cc(-c3cnc(-c4c[nH]c5ccc(OC)cc45)cn3)c2c1 [formula (8), 2,5-bis(5-methoxy-1H-indole-3-yl)pyrazine], the “effect against M. tuberculosis, S. aureus and E.faecium” value is reported as “did not show any effect”.

same assay, conditions: tested concentration range 100-0.78 µM

With Fc1ccc2[nH]cc(-c3cnc(-c4c[nH]c5ccc(F)cc45)cn3)c2c1 [formula (5), 2,5-bis(5-fluoro-1H-indole-3-yl)pyrazine] the “activity against the tested strains” value was “no activity”.

system: S. aureus ATCC 25923; experiment: MIC by broth microdilution method (CLSI); details: Staphylococcus aureus, ATCC25923, 24 h
Protocol: as §1

Going from Fc1ccc2[nH]cc(-c3cnc(-c4c[nH]c5ccc(F)cc45)cn3)c2c1 [formula (5), 2,5-bis(5-fluoro-1H-indole-3-yl)pyrazine] to Fc1ccc2[nH]cc(-c3cnc(-c4c[nH]c5ccc(F)cc45)nc3)c2c1 [formula (11), 3,3'-(pyrimidine-2,5-diyl)bis(5-fluoro-1H-indole)], the MIC falls from over 100 µM to 100 µM.

c1cc(-c2c[nH]c3ccccc23)nc(-c2c[nH]c3ccccc23)c1 [formula (16), 2,6-di(1H-indole-3-yl)pyridine] and c1ccc2c(-c3ccc(-c4c[nH]c5ccccc45)nn3)c[nH]c2c1 [formula (17), 3,6-Di(1H-indole-3-yl)pyridazine] cannot be ordered by MIC: over 100 µM for the first, over 100 µM for the second.

Going from Brc1cc2[nH]cc(-c3cnc(-c4c[nH]c5cc(Br)c(Br)cc45)cn3)c2cc1Br [formula (7), 2,5-bis(5,6-dibromo-1H-indole-3-yl)pyrazine] to COc1ccc2[nH]cc(-c3cnc(-c4c[nH]c5ccc(OC)cc45)cn3)c2c1 [formula (8), 2,5-bis(5-methoxy-1H-indole-3-yl)pyrazine], the MIC rises from 100 µM to over 100 µM.

c1ccc2c(-c3cnc(-c4c[nH]c5ccccc45)cn3)c[nH]c2c1 [formula (10), 2,5-bis(1H-indole-3-yl)pyrazine] and COc1ccc2[nH]cc(-c3cnc(-c4c[nH]c5ccc(OC)cc45)nc3)c2c1 [formula (14), 3,3'-(pyrimidine-2,5-diyl)bis(5-methoxy-1H-indole)] cannot be ordered by MIC: over 100 µM for the first, over 100 µM for the second.

system: E. faecalis ATCC 51299; experiment: MIC by broth microdilution method (CLSI); details: Enterococcus faecalis, ATCC51299, 24 h
Protocol: as §1

First: Fc1ccc2[nH]cc(-c3cnc(-c4c[nH]c5ccc(F)cc45)cn3)c2c1 [formula (5), 2,5-bis(5-fluoro-1H-indole-3-yl)pyrazine]
Second: Fc1ccc2[nH]cc(-c3cnc(-c4c[nH]c5ccc(F)cc45)nc3)c2c1 [formula (11), 3,3'-(pyrimidine-2,5-diyl)bis(5-fluoro-1H-indole)]
The MIC of the first is higher: over 100 µM for the first, 100 µM for the second.

c1cc(-c2c[nH]c3ccccc23)nc(-c2c[nH]c3ccccc23)c1 [formula (16), 2,6-di(1H-indole-3-yl)pyridine] and c1ccc2c(-c3ccc(-c4c[nH]c5ccccc45)nn3)c[nH]c2c1 [formula (17), 3,6-Di(1H-indole-3-yl)pyridazine] are the same in MIC: 100 µM for the first, 100 µM for the second.

Brc1cc2[nH]cc(-c3cnc(-c4c[nH]c5cc(Br)c(Br)cc45)cn3)c2cc1Br [formula (7), 2,5-bis(5,6-dibromo-1H-indole-3-yl)pyrazine] and COc1ccc2[nH]cc(-c3cnc(-c4c[nH]c5ccc(OC)cc45)cn3)c2c1 [formula (8), 2,5-bis(5-methoxy-1H-indole-3-yl)pyrazine] cannot be ordered by MIC: over 100 µM for the first, over 100 µM for the second.

Compared with c1ccc2c(-c3cnc(-c4c[nH]c5ccccc45)cn3)c[nH]c2c1 [formula (10), 2,5-bis(1H-indole-3-yl)pyrazine], COc1ccc2[nH]cc(-c3cnc(-c4c[nH]c5ccc(OC)cc45)nc3)c2c1 [formula (14), 3,3'-(pyrimidine-2,5-diyl)bis(5-methoxy-1H-indole)] is 4-fold higher in MIC: 25 µM for the first, 100 µM for the second.

system: MRSA ATCC 700699; experiment: MIC by broth microdilution method (CLSI); details: Staphylococcus aureus, 24 h
Protocol: as §1

Going from Fc1ccc2[nH]cc(-c3cnc(-c4c[nH]c5ccc(F)cc45)cn3)c2c1 [formula (5), 2,5-bis(5-fluoro-1H-indole-3-yl)pyrazine] to Fc1ccc2[nH]cc(-c3cnc(-c4c[nH]c5ccc(F)cc45)nc3)c2c1 [formula (11), 3,3'-(pyrimidine-2,5-diyl)bis(5-fluoro-1H-indole)], the MIC falls from over 100 µM to 12.5 µM.

c1cc(-c2c[nH]c3ccccc23)nc(-c2c[nH]c3ccccc23)c1 [formula (16), 2,6-di(1H-indole-3-yl)pyridine] and c1ccc2c(-c3ccc(-c4c[nH]c5ccccc45)nn3)c[nH]c2c1 [formula (17), 3,6-Di(1H-indole-3-yl)pyridazine] cannot be ordered by MIC: over 100 µM for the first, over 100 µM for the second.

Going from Brc1cc2[nH]cc(-c3cnc(-c4c[nH]c5cc(Br)c(Br)cc45)cn3)c2cc1Br [formula (7), 2,5-bis(5,6-dibromo-1H-indole-3-yl)pyrazine] to COc1ccc2[nH]cc(-c3cnc(-c4c[nH]c5ccc(OC)cc45)cn3)c2c1 [formula (8), 2,5-bis(5-methoxy-1H-indole-3-yl)pyrazine], the MIC rises from 25 µM to over 100 µM.

First: c1ccc2c(-c3cnc(-c4c[nH]c5ccccc45)cn3)c[nH]c2c1 [formula (10), 2,5-bis(1H-indole-3-yl)pyrazine]
Second: COc1ccc2[nH]cc(-c3cnc(-c4c[nH]c5ccc(OC)cc45)nc3)c2c1 [formula (14), 3,3'-(pyrimidine-2,5-diyl)bis(5-methoxy-1H-indole)]
The MIC of the first is higher: over 100 µM for the first, 50 µM for the second.
